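Interpolation was linear, between the two tested concentrations surrounding the appropriate level; five concentrations were tested over 48 hours in 96-well plates. GI50 marks 50% less growth. TGI denotes the concentration required for complete inhibition of growth.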
Legend:
Assay in all cases: DTP human tumour cell line panel, 48 h
[1] = system: OVCAR-3 ovarian
[2] = system: LOX IMVI melanoma
[3] = system: CCRF-CEM leukemia
[4] = system: MDA-MB-231 breast
[5] = system: SR leukemia
[6] = system: MCF7 breast
[7] = system: M14 melanoma
[8] = system: SK-OV-3 ovarian
[9] = system: HS 578T breast
[10] = system: UACC-62 melanoma

Row | SMILES | GI50 [1] [µM] | TGI [1] [µM] | GI50 [2] [nM] | TGI [2] [µM] | GI50 [3] [nM] | TGI [3] [µM] | GI50 [4] [µM] | TGI [4] [µM] | GI50 [5] [nM] | TGI [5] [µM] | GI50 [6] [nM] | TGI [6] [µM] | GI50 [7] [nM] | TGI [7] [µM] | GI50 [8] [µM] | TGI [8] [µM] | GI50 [9] [µM] | TGI [9] [µM] | GI50 [10] [µM] | TGI [10] [µM]
1 | CN1CCN(c2ccc3nc(-c4ccc(OCCCCN5CCN(CCCCN6C(=O)c7cccc8cccc(c78)C6=O)CC5)cc4)[nH]c3c2)CC1 | 36.6 | > 100 | 37300 | > 100 | 47800 | > 100 | 54.7 | > 100 | 12900 | > 100 | 74700 | > 100 | > 100000 | > 100 | > 100 | > 100 | 3.39 | > 100 | 40.7 | > 100
2 | O=C1/C(=C\c2ccccc2)C2OCC=C3CN4CCC56c7ccccc7N1C5C2C3CC46 (centres undefined) | 36.5 | > 100 | 4900 | 49.8 | 6060 | > 100 | 6.92 | > 100 | 2650 | 8.76 | 5200 | > 100 | 1940 | 3.72 | > 100 | > 100 | 62.5 | > 100 | 1.83 | 4.06
3 | O=C(C=C=Nc1ccccc1)C(=O)N=C=Cc1ccccc1 | 1.48 | 2.97 | 1930 | 4.48 | 724 | > 100 | 3.15 | 10.4 | 298 | > 100 | 2350 | 12.6 | 2160 | 6.46 | 20.3 | 68 | 2.26 | 7.31 | 4.26 | 12.6
4 | CN(C(=O)CNC(=O)/C=C/c1cccc(Cl)c1)C1CCS(=O)(=O)CC1 | 1.21 | > 100 | 700 | > 100 | > 100000 | > 100 | 0.525 | > 100 | > 100000 | > 100 | 1030 | > 100 | 1480 | > 100 | 18.2 | > 100 | 90.4 | > 100 | 0.986 | > 100
5 | COc1cc(Cn2c(-c3ccccc3)cc3c2-c2oncc2CC3)cc(OC)c1 | 0.204 | 0.477 | 757 | > 100 | 337 | > 100 | 0.694 | > 24.2 | 308 | > 40.7 | 307 | > 100 | 299 |  | 0.4 | > 100 | 0.264 | 50.1 | 0.314 | > 100
6 | NS(=O)(=O)c1ccc(NC(=O)c2cccc(NC3=C(Cl)C(=O)N(Cc4ccccc4)C3=O)c2)cc1 | 12.4 | 27 | 3540 | 16.1 | 2820 | 8.17 | 6.93 | 37 | 323 | 1.73 | 3610 | 14.6 | 15800 | 38.7 | 26.9 | 77.5 | 7.92 | 36.7 | 9.05 | 22.9
